Experiments:
Type in all cases: cell-based, human
[1] = system: TTK mRNA; assay: Antisense depletion of TTK mRNA after transfection, quantitated by real-time PCR; conditions: SW620 cells, oligonucleotide final concentration 30 nM, normalized to beta-actin
Description: A number of different oligonucleotides complementary to TTK mRNA were designed as potential antisense oligonucleotides, and tested for their ability to suppress expression of TTK. The ability of each designed antisense oligonucleotide to inhibit gene expression was tested through transfection into SW620 colon colorectal carcinoma cells. For each transfection mixture, a carrier molecule, preferably a lipitoid or cholesteroid, was prepared to a working concentration of 0.5 mM in water, sonicated to yield a uniform solution, and filtered through a 0.45 μm PVDF membrane. The antisense or control oligonucleotide was then prepared to a working concentration of 100 μM in sterile Millipore water. The oligonucleotide was further diluted in OptiME™ (Gibco/BRL), in a microfuge tube, to 2 μM, or approximately 20 μg oligo/ml of OptiMEM™. […]
The level of target mRNA (TTK) in the transfected cells was quantitated in the cancer cell lines using the Roche LightCycler™ real-time PCR machine. […]
An amplification mixture was prepared by mixing in the following order: 1×PCR buffer II, 3 mM MgCl2, 140 μM each dNTP, 0.175 pmol each oligo, 1:50,000 dil of SYBR® Green, 0.25 mg/ml BSA, 1 unit Taq polymerase, and H2O to 20 μl. […] As double stranded PCR product is produced during amplification, the fluorescence from SYBR®) Green increases. […]

[2] = system: SW620 cells; assay: Soft agar colony formation assay; conditions: 2000 cells per well, oligo added without delivery vehicle
Description: The effect of TTK expression upon colony formation was tested in a soft agar assay. Soft agar assays were conducted by first establishing a bottom layer of 2 ml of 0.6% agar in media plated fresh within a few hours of layering on the cells. The cell layer was formed on the bottom layer by removing cells transfected as described above from plates using 0.05% trypsin and washing twice in media. The cells were counted in a Coulter counter, and resuspended to 10^6 per ml in media. 10 μl aliquots are placed with media in 96-well plates (to check counting with WST1), or diluted further for soft agar assay. 2000 cells are plated in 800 μl 0.4% agar in duplicate wells above 0.6% agar bottom layer. After the cell layer agar solidifies, 2 ml of media is dribbled on top and antisense or reverse control oligo is added without delivery vehicles. Fresh media and oligos are added every 3-4 days. Colonies are formed in 10 days to 3 weeks. Fields of colonies were counted by eye. Wst-1 metabolism values can be used to compensate for small differences in starting cell number. Larger fields can be scanned for visual record of differences.

[3] = system: SW620 cells; assay: Cell death by LDH release (Cytotoxicity Detection Kit)
Description: SW620 cells were transfected as described for proliferation assays. For cytotoxic effect in the presence of cisplatin (cis), the same protocol was followed but cells were left in the presence of 2 μM drug. Each day, cytotoxicity was monitored by measuring the amount of LDH enzyme released in the medium due to membrane damage. The activity of LDH was measured using the Cytotoxicity Detection Kit from Roche Molecular Biochemicals. The data is provided as a ratio of LDH released in the medium vs. the total LDH present in the well at the same time point and treatment (rLDH/tLDH).

| Substance | depletion of TTK RNA in the transfection assays [1] | colony size and number compared to reverse control (79-9RC) or control oligonucleotides (52-3AS, 52-3RC) [2] | sensitization of the cells to treatment by cisplatin ([3]; 2 μM cisplatin, rLDH/tLDH) | cell death compared to control oligo (rLDH/tLDH) ([3]; day 3) |
| --- | --- | --- | --- | --- |
| 79-5AS (antisense GGGACTCTTCCAAATGGGCATGACT; chemistry not given here) [Oligo 79-5AS] | effectively deplete TTK RNA |  |  |  |
| 79-9AS (antisense TCCAGTAACTCTTGCGTTCCCATGG; chemistry not given here) [Oligo 79-9AS] | effectively deplete TTK RNA | decreased colony size and number |  |  |
| Oligo 79-9AS: TTK antisense oligonucleotide TCCAGTAACTCTTGCGTTCCCATGG (SEQ ID NO:6) (chemistry not given here) |  |  | does not sensitize the cells to treatment by cisplatin at a detectable level | increased death |

Source: patent publication US7867731B2, “HX2004-6 polypeptide expressed in cancerous cells” (Novartis Vaccines and Diagnostics, Inc., priority 1998, dated 2011)
